± gives the expanded uncertainty stated by the source.
Assay: refractive index (Na D-line) (dimensionless); xn = mol fraction of the nth substance listed
Conditions: 101 kPa, Liquid, Standard Abbe refractometry

CCCCn1cc[n+](C)c1.[O-][Cl+3]([O-])([O-])[O-] [1-butyl-3-methylimidazolium perchlorate] + CCO
refractive index
Conditions | x2 = 0.1 | x2 = 0.165 | x2 = 0.291 | x2 = 0.401 | x2 = 0.479
283.15 K | 1.475 ± 0.001 | 1.4725 ± 0.001 | 1.468 ± 0.0009 | 1.4625 ± 0.0008 | 1.459 ± 0.0008
288.15 K | 1.4738 ± 0.001 | 1.4715 ± 0.001 | 1.4667 ± 0.0009 | 1.4612 ± 0.0008 | 1.4575 ± 0.0008
293.15 K | 1.4725 ± 0.001 | 1.47 ± 0.001 | 1.4655 ± 0.0009 | 1.4595 ± 0.0008 | 1.4563 ± 0.0008
298.15 K | 1.471 ± 0.001 | 1.4687 ± 0.001 | 1.464 ± 0.0009 | 1.458 ± 0.0008 | 1.455 ± 0.0008
303.15 K | 1.4697 ± 0.001 | 1.4673 ± 0.001 | 1.4627 ± 0.0009 | 1.4568 ± 0.0008 | 1.4535 ± 0.0008
308.15 K | 1.4685 ± 0.001 | 1.466 ± 0.001 | 1.4615 ± 0.0009 | 1.4555 ± 0.0008 | –
313.15 K | 1.467 ± 0.0011 | 1.4648 ± 0.001 | 1.46 ± 0.0009 | 1.454 ± 0.0008 | –
318.15 K | 1.4655 ± 0.001 | 1.4637 ± 0.001 | 1.4587 ± 0.0009 | – | –
323.15 K | 1.4645 ± 0.001 | 1.462 ± 0.001 | 1.457 ± 0.0009 | – | –
328.15 K | 1.463 ± 0.0011 | 1.4608 ± 0.001 | 1.456 ± 0.0009 | – | –
333.15 K | 1.4615 ± 0.001 | 1.4595 ± 0.001 | 1.4545 ± 0.0009 | – | –
338.15 K | 1.4603 ± 0.001 | 1.458 ± 0.001 | 1.4532 ± 0.0009 | – | –
343.15 K | 1.459 ± 0.001 | 1.4565 ± 0.001 | 1.4518 ± 0.0009 | – | –

CCCCCCCC[n+]1ccn(C)c1.F[B-](F)(F)F [1-methyl-3-octylimidazolium tetrafluoroborate] + CCO
refractive index
Conditions | x2 = 0.081 | x2 = 0.161 | x2 = 0.315 | x2 = 0.511 | x2 = 0.612 | x2 = 0.753
283.15 K | 1.4335 ± 0.0006 | 1.4315 ± 0.0006 | 1.43 ± 0.0006 | 1.4265 ± 0.0006 | 1.4225 ± 0.0006 | 1.4132 ± 0.0006
288.15 K | 1.4323 ± 0.0006 | 1.4305 ± 0.0006 | 1.4288 ± 0.0006 | 1.425 ± 0.0006 | 1.4212 ± 0.0006 | 1.4125 ± 0.0006
293.15 K | 1.431 ± 0.0006 | 1.4292 ± 0.0006 | 1.4273 ± 0.0006 | 1.4237 ± 0.0006 | 1.42 ± 0.0006 | 1.411 ± 0.0006
298.15 K | 1.4295 ± 0.0006 | 1.428 ± 0.0006 | 1.426 ± 0.0006 | 1.423 ± 0.0006 | 1.4185 ± 0.0006 | 1.4098 ± 0.0006
303.15 K | 1.4284 ± 0.0006 | 1.427 ± 0.0006 | 1.4245 ± 0.0006 | 1.4208 ± 0.0006 | 1.4172 ± 0.0006 | 1.4085 ± 0.0006
308.15 K | 1.4268 ± 0.0006 | 1.4255 ± 0.0006 | 1.423 ± 0.0006 | 1.4195 ± 0.0006 | 1.416 ± 0.0006 | 1.4072 ± 0.0006
313.15 K | 1.4255 ± 0.0006 | 1.424 ± 0.0006 | 1.4219 ± 0.0006 | 1.418 ± 0.0006 | 1.4143 ± 0.0006 | 1.407 ± 0.0006
318.15 K | 1.424 ± 0.0006 | 1.4225 ± 0.0006 | 1.4205 ± 0.0006 | 1.4168 ± 0.0006 | 1.413 ± 0.0006 | 1.4065 ± 0.0006
323.15 K | 1.4225 ± 0.0006 | 1.421 ± 0.0006 | 1.419 ± 0.0006 | 1.415 ± 0.0006 | 1.4115 ± 0.0006 | 1.4055 ± 0.0006
328.15 K | 1.4213 ± 0.0006 | 1.42 ± 0.0006 | 1.4178 ± 0.0006 | 1.4137 ± 0.0006 | 1.41 ± 0.0006 | 1.4045 ± 0.0006
333.15 K | 1.4205 ± 0.0006 | 1.4188 ± 0.0006 | 1.416 ± 0.0006 | 1.4125 ± 0.0006 | 1.4085 ± 0.0006 | 1.404 ± 0.0006
338.15 K | 1.419 ± 0.0006 | 1.4173 ± 0.0006 | 1.4145 ± 0.0006 | 1.4118 ± 0.0006 | 1.4078 ± 0.0006 | 1.4033 ± 0.0006
343.15 K | 1.4175 ± 0.0006 | 1.416 ± 0.0006 | 1.4132 ± 0.0006 | 1.411 ± 0.0006 | 1.4065 ± 0.0006 | 1.402 ± 0.0006

Reference: the NIST ThermoML archive (doi:10.1021/je700521t)
